Test system: SH-SY5Y neuroblastoma cells
Test: Neuroprotection / cell viability of differentiated SH-SY5Y neuroblastoma cells with or without MPP (CCK-8)
Assay type: cell-based, human
Details: RA-differentiated SHSY-5Y cells treated with MPP+, FIG. 11
Method: Neuroblastoma cells were treated with compositions comprising bacterial strains according to the invention. The SH-SY5Y neuroblastoma cells used are dopamine producing and well-established as an in vitro model for studying neurodegenerative diseases. The ability of the bacterial strains to increase neuroproliferation was observed. The neuroblastoma cells were treated also treated dopaminergic neurotoxin 1-methyl-4-phenylpyridinium (MPP), which induces permanent symptoms of Parkinson's disease in neuroblastoma cells. The ability of the bacterial strains to act as a neuroprotectant against MPP was investigated.
SH-SY5Y neuroblastoma cells were purchased from ECCACC (Cat. no: 94030304) and were grown in MEM (Sigma Aldrich, cat n. M2279) supplemented with Nutrient Mixture F-12 Ham (Sigma Aldrich, cat n. N4888).
Once grown the SH-SY5Y neuroblastoma cells were plated on 96-well plate at 11,000 cells/well and incubated for 2 days. […] Cell viability was measured by using CCK-8 reagent (Sigma Aldrich, Cell Counting Kit—8, cat. n. 96992-3000TESTS-F) and read at 450 nm wavelength.
RA-differentiated SHSY-5Y cells were treated with MPP+, the active metabolite of MPTP, a chemical widely used to mimic in vitro and in vivo some of the features of PD pathology. Cell viability was measured as the rate of mitochondria respiration (FIG. 11).

O=c1c(O)c(-c2ccc(O)c(O)c2)oc2cc(O)cc(O)c12 [quercetin]
protection compared to YCFA-MPP+ treated sample: about 20%

— patent US12048720B2, “Compositions comprising bacterial strains” (CJ BIOSCIENCE, INC., priority 2017, dated 2024)
